In PubChem BioAssay (NCI):
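Cultured in 96-well plates, cells were exposed to test compound for 48 hours across five concentrations. The concentration for 50% growth inhibition is given as GI50. TGI is the concentration that stops growth completely.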

Tested on: MDA-MB-468 breast
Test: DTP human tumour cell line panel, 48 h

Compound | GI50 [µM] | TGI [µM]
Cn1ccc(S(=O)(=O)N2CCC[C@H](Nc3nccc(-c4c(-c5cccc(O)c5)nc5occn45)n3)C2)n1 | 8.15 | 31.9
CCN(CC)CCOc1ccc2c(-c3ccccc3)c(-c3ccc(OC)cc3)c(=O)oc2c1 | 2.58 | 8.73
COc1cc(C2C=C(C)N=C3SC=C(C)N32)cc(OC)c1OC (centres undefined) | 1.12 | 2.67
CC(=O)NC(CCc1ccc(Cl)c(Cl)c1)c1cccc(O)c(=O)c1 (centres undefined) | 0.442 | 4.07
Cc1ccc2c(-c3ccnc(Nc4cccc(C(F)(F)F)c4)n3)c(-c3ccccc3)nn2n1 | 0.509 | 4.58
CCCCNC(=O)CC1=C(C)/C(=C/c2[nH]c(-c3ccc[nH]3)cc2OC)N=C1C | 2.04 | 7.5
CCOC(=O)C(Cc1ccccc1)n1c(O)c(/C=N/c2ncc(Cc3ccc(Cl)cc3Cl)s2)sc1=S (centres undefined) | 2.48 | 7.35
Oc1c(Cl)cc(Cl)c(Cl)c1Cc1c(O)c(Cl)cc(Cl)c1Cl | 0.661 | 8.45
CCN(CC)Cc1cc(Nc2ccnc3ccc(OC)cc23)ccc1O | 1.67 | 4.47
C#Cc1ccc(C(=O)NCc2ccc(/C=C/C(=O)c3nccn3C)cc2)cc1 | 2.6 | 8.76
Fc1ccc(C2CC(c3cccc(Nc4ccncc4)c3)=NN2c2ccccc2)cc1 (centres undefined) | 1.54 | 3.37
Cc1cc(NS(=O)(=O)c2ccc(-c3cnc(C4CC4)o3)cc2)ccc1Cl | 0.165 | 12.7
Cc1ccc(/C=C(/C#N)n2nnc3cccc(F)c32)cc1 | 0.702 | 6.3
COC(=O)C1C(=O)C(C(=O)OC)C2CCC1N2C (centres undefined) | 69.5 | > 100
CCNCCS(=O)(=O)NC[C@@]1(c2ccccc2)SC(NC(=O)C(C)(C)C)=NN1C(=O)C(C)(C)C | < 0.01 | 
O=C1NC(=NCCc2ccccc2F)S/C1=C\c1ccc2ncccc2c1 | 2.67 | > 18.6
COc1cccc(N2C(=N)/C(=C3\Nc4ccccc4S3)CC2=O)c1 | 26.2 | > 100
Cc1cc2c(C(C)C)c(O)c(O)c(/C=N/O)c2c(O)c1-c1c(C)cc2c(C(C)C)c(O)c(O)c(/C=N/O)c2c1O | 2.05 | 6.44
N#Cc1ncc(-c2ccc(C(F)(F)F)cc2)c(NC2CCCCCC2)n1 | 4.16 | > 100
N#Cc1c(-c2ccccc2)nc(SCC(O)CN2CCOCC2)nc1N1CCOCC1 (centres undefined) | 2.16 | 21.5

Compound | GI50 [µM] | TGI [µM]
CC(C)=CCc1c2c(c(O)c3c1O[C@]14C(=C[C@@H]5C[C@H]1C(C)(C)O[C@@]4(C/C=C(/C)C(=O)O)C5=O)C3=O)C=CC(C)(C)O2 | 15.8 | 35.5
Cc1ccc(NC(=O)c2cc(/C=C/C(=O)NO)cc(C(F)(F)F)c2)cc1Nc1nccc(-c2cccnc2)n1 | 1.43 | 3.94
CCN(CC)CCOc1ccc(/C(=C(\C)Cc2ccc(OC)cc2)c2ccc(O)cc2)cc1 | 1.54 | 3.05
CN1C(=O)[C@@H](CC2CCCC2)N(C2CCCC2)c2nc(Nc3cc(Cl)c(O)c(Cl)c3)ncc21 | 19.1 | 89.9
CCN1C[C@@H](C)n2c(c(O)c3c(=O)n(Cc4ccc(F)c(Cl)c4)nc(C(=O)NC)c32)C1=O | 2.51 | 8.18
Cn1cc(Nc2nccc(-c3ccc4c(c3)CN(C3COC3)CC[C@H]4NC(=O)c3cn(C(C)(C)C)nn3)n2)cn1 | 39 | > 100
CC[C@]1(O)CC2CN(CCc3c([nH]c4ccccc34)C(C(=O)OC)(c3cc4c(cc3OC)N(C=O)[C@H]3[C@@](O)(C(=O)OC)[C@H](OC(C)=O)[C@]5(CC)[C@@H]6C[C@@H]6CN6CC[C@]43[C@@H]65)C2)C1 (some centres undefined) | < 0.00325 | < 0.00325
Cc1c(Br)c(Br)c2c3c1nc(N1CCNCC1)n3CCC2 | 1.6 | 3.31
C=CCc1cc(O)ccc1O | 14 | 32.4
Nc1ncc(-c2ccc3ncnc(N4CCc5cc(F)c(Cl)cc54)c3c2)cc1C=O | 0.306 | 1.63
CN1CCC(=C(c2ccc(Cl)cc2)c2ccccn2)CC1 | 38.9 | > 100
Oc1ccc(/C=N/NC(=S)Nc2ccccc2)nc1 | 1.32 | 4.4
CC(C)N(CCNc1nc(C(Cl)(Cl)Cl)nc2cc(Cl)ccc12)C(C)C | 1.38 | 2.82
O=C(Nc1nc2ccc(OC(F)(F)F)cc2s1)c1ccc(F)cc1 | 2.36 | 7.36
CC(C)(Oc1cccc(N2CCC[C@@H](C(=O)N(Cc3ccc(-c4cn[nH]c4)cc3)C3CC3)C2)c1)C(=O)N1CCNCC1 | 2.23 | 6.8
COc1ccc(-c2cc(-c3ccc(Cl)cc3)nc(SCCCC(=O)NO)n2)cc1OC | 1.17 | 4.27
Cc1ncnc2c1ccn2[C@@H]1C[C@H](Oc2cc(C(F)F)c(F)c3c2CNCC3)[C@@H](O)[C@H]1O | > 100 | > 100
C/C=C(/C)C(=O)OC1C=C(CO)C(=O)C(OC(=O)C2(C)OC2C)C1C(C)C (centres undefined) | 1.46 | 3.46
CN(C)C/C=C/C(=O)Nc1ccc(C(=O)Nc2cccc(Nc3ncc(Cl)c(-c4c[nH]c5ccccc45)n3)c2)cc1 | 0.018 | 0.043
COc1cc(C(=O)/C=C/c2cccnc2Nc2ccc(Cl)cc2)cc(OC)c1OC | 1.29 | 2.67
